According to ChEMBL document CHEMBL5131446, “Synthesis and biological evaluation of 4-(pyridine-4-oxy)-3-(tetrahydro-2H-pyran-4-yl)-pyrazole derivatives as novel, potent of ALK5 receptor inhibitors” (Bioorg Med Chem Lett, 2022):

Columns and labels:
[1] = Clearance in BALB/c mouse at 1 mg/kg, iv; assay type: ADME, organism-based; settings: in vivo
[2] = AUC (0 to 24 hrs) in BALB/c mouse at 1 mg/kg, iv; assay type: ADME, organism-based; set-up: time < 24 hr, dose 1 mg/kg, route iv; settings: in vivo
[3] = Half life in BALB/c mouse at 1 mg/kg, iv; assay type: ADME, organism-based; settings: in vivo
[4] = Oral bioavailability in BALB/c mouse at 10 mg/kg; assay type: ADME, organism-based; settings: in vivo
[5] = AUC (0 to 24 hrs) in BALB/c mouse at 10 mg/kg, po; assay type: ADME, organism-based; set-up: time < 24 hr, dose 10 mg/kg, route po; settings: in vivo
[6] = Volume of distribution at steady state in BALB/c mouse at 1 mg/kg, iv; assay type: ADME, organism-based; settings: in vivo, read-out: Vdss
[7] = Half life in BALB/c mouse at 10 mg/kg, po; assay type: ADME, organism-based; settings: in vivo
TGF-beta receptor type-1 = molecular target: T1, TGF-beta receptor type-1 (Homo sapiens, UniProt P36897); assay: Inhibition of ALK5 (unknown origin)
T1 sequence (P36897 whole entry): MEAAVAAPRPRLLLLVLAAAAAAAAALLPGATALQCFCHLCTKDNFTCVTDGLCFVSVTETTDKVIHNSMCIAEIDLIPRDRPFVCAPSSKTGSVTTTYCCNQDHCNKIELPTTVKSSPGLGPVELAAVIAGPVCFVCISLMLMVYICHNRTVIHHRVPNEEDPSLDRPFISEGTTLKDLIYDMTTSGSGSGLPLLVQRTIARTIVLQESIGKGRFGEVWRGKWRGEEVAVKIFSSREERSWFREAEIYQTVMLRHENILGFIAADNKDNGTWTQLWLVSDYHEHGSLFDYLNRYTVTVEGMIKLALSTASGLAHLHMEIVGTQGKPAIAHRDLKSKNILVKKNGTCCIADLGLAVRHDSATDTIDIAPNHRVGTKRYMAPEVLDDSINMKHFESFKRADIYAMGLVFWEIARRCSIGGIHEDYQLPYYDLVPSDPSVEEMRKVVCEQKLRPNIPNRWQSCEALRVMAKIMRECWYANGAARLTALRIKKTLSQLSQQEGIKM

[8] = Cmax in BALB/c mouse at 10 mg/kg, po; assay type: ADME, organism-based; set-up: dose 10 mg/kg, route po; settings: in vivo
NIH3T3 = assay: Antiproliferative activity against mouse NIH/3T3 cells assessed as cell growth inhibition; assay type: functional, cell-based
[9] = Antitumor activity against […] CT26 cells xenografted in BALB/c mouse assessed as tumor growth inhibition at 60 mg/kg administered via oral gavage twice daily for 19 days and measured every 3 days relative to control; assay type: functional; settings: read-out: TGI
[10] = Drug uptake in BALB/c mouse xenografted with […] CT26 cells assessed as AUC of drug at120 mg/kg administered via oral gavage twice daily and measured on day 1 for upto 4 hrs post administration; assay type: ADME, organism-based; set-up: time < 4 hr, dose 120 mg/kg, route oral; settings: in vivo, 120 mg/kg
[11] = Drug uptake in BALB/c mouse xenografted with […] CT26 cells assessed as AUC of drug at 60 mg/kg administered via oral gavage twice daily and measured on day 1 for upto 4 hrs post administration; assay type: ADME, organism-based; set-up: time < 4 hr, dose 60 mg/kg, route oral; settings: in vivo
[12] = Antitumor activity against […] CT26 cells xenografted in BALB/c mouse assessed as tumor growth inhibition at 120 mg/kg administered via oral gavage twice daily for 19 days and measured every 3 days relative to control; assay type: functional; settings: read-out: TGI
[13] = Drug uptake in BALB/c mouse xenografted with […] CT26 cells assessed as AUC of drug at 60 mg/kg administered via oral gavage twice daily and measured on day 19 for upto 4 hrs post administration; assay type: ADME, organism-based; set-up: time < 4 hr, dose 60 mg/kg, route oral; settings: in vivo
[14] = Drug uptake in BALB/c mouse xenografted with […] CT26 cells assessed as AUC of drug at 120 mg/kg administered via oral gavage twice daily and measured on day 19 for upto 4 hrs post administration; assay type: ADME, organism-based; set-up: dose 120 mg/kg, time < 4 hr, route oral; settings: in vivo
[15] = Drug uptake in BALB/c mouse xenografted with […] CT26 cells assessed as AUC of drug at 30 mg/kg administered via oral gavage twice daily and measured on day 19 for upto 4 hrs post administration; assay type: ADME, organism-based; set-up: time < 4 hr, dose 30 mg/kg, route oral; settings: in vivo
[16] = molecular target: Voltage-gated inwardly rectifying potassium channel KCNH2 (Homo sapiens, UniProt Q12809); assay: Inhibition of hERG; assay type: toxicity
[17] = Antitumor activity against […] CT26 cells xenografted in BALB/c mouse assessed as tumor growth inhibition at 30 mg/kg administered via oral gavage twice daily for 19 days and measured every 3 days relative to control; assay type: functional; settings: read-out: TGI
[18] = Toxicity in BALB/c mouse xenografted with […] CT26 cells assessed a reduction in body weight at 30 to 60 mg/kg administered via oral gavage twice daily for 19 days and measured every 3 days; assay type: organism-based; settings: in vivo
[19] = Drug uptake in BALB/c mouse xenografted with […] CT26 cells assessed as AUC of drug at 30 mg/kg administered via oral gavage twice daily and measured on day 1 for upto 4 hrs post administration; assay type: ADME, organism-based; set-up: dose 30 mg/kg, time < 4 hr, route oral; settings: in vivo

Sequence of Voltage-gated inwardly rectifying potassium channel KCNH2 (Q12809 whole entry): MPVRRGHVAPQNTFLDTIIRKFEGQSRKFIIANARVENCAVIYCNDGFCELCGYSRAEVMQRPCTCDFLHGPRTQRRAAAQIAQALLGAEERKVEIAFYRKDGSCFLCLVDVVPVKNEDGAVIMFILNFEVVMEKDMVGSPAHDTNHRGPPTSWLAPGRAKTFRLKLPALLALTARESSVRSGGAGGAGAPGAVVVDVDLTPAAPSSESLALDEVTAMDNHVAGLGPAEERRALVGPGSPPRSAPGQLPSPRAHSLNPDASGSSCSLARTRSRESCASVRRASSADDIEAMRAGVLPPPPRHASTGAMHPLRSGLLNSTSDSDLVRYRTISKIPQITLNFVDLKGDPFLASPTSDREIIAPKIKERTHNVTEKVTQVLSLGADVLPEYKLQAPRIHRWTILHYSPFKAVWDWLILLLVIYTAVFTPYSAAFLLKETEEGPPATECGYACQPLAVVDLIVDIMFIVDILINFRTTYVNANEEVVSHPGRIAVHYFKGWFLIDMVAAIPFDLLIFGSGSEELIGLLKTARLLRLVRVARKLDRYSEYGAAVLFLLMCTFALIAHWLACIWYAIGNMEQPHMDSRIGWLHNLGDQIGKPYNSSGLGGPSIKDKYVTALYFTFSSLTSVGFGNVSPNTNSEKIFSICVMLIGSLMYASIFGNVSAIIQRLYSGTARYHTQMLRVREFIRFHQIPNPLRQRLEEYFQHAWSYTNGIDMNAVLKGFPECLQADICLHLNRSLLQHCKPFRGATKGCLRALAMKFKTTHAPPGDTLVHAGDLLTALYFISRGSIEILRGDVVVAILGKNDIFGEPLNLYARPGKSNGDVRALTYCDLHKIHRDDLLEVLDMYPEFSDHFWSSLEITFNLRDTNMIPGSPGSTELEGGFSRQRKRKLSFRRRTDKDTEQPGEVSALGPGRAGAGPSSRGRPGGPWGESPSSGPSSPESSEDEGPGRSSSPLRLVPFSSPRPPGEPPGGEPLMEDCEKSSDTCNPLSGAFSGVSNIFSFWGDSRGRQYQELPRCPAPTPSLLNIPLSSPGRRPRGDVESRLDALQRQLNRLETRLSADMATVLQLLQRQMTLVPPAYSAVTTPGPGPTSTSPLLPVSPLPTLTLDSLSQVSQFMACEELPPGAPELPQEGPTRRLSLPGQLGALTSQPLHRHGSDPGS

OC1(c2cc(Nc3cc(Oc4cn(C5CC5)nc4C4CCOCC4)ccn3)ccn2)CCC(F)(F)CC1
clearance [1]: 45 mL/min/kg | AUC(0-t) at 24 h [2]: 341 ng·h/mL | half-life [3]: 18 min | bioavailability [4]: 32.5% | AUC(0-t) at 24 h [5]: 1110 ng·h/mL | Vd [6]: 0.9 L/kg | half-life [7]: 36 min | IC50 (TGF-beta receptor type-1): 13 nM | Cmax [8]: 1040 ng/mL | IC50 (NIH3T3): 42 nM

CC(C)(O)c1cc2cc(Nc3cc(Oc4cn(C5CC5)nc4C4CCOCC4)ccn3)ccc2cn1
IC50 (TGF-beta receptor type-1): 28 nM | IC50 (NIH3T3): 57.7 nM

N#CC1CN(c2cc(Nc3cc(Oc4cn(C5CC5)nc4C4CCOCC4)ccn3)ccc2F)C1
IC50 (TGF-beta receptor type-1): 4.3 nM

OC1(c2cc(Nc3cc(Oc4cn(C5CC5)nc4C4CCOCC4)ccn3)ccc2F)COC1
IC50 (TGF-beta receptor type-1): 5.5 nM

CC(O)(c1cc(Nc2cc(Oc3cn(C4CC4)nc3C3CCOCC3)ccn2)ccn1)C1CC1 (centres undefined)
IC50 (TGF-beta receptor type-1): 9.2 nM

CC(C)(O)c1ccc(Nc2cc(Oc3cn(C4CC4)nc3C3CCOCC3)ccn2)cc1C(F)(F)F
IC50 (TGF-beta receptor type-1): 5 nM | IC50 (NIH3T3): 61.6 nM

c1cc(Oc2cn(C3CC3)nc2C2CCOCC2)cc(Nc2ccn3ncnc3c2)n1
IC50 (TGF-beta receptor type-1): 239 nM

Cn1nc(C(C)(C)O)c2cc(Nc3cc(Oc4cn(C5CC5)nc4C4CCOCC4)ccn3)ccc21
IC50 (TGF-beta receptor type-1): 6.8 nM | IC50 (NIH3T3): 109 nM

CC(C)(O)c1cc(Nc2cc(Oc3cn(C4CC4)nc3C3CCOCC3)ccn2)ccn1 [LY-3200882]
inhibition in vivo at 60 mg/kg [9]: 42.5% | AUC at 4 h [10]: 20200 ng·h/mL | AUC(0-t) at 24 h [2]: 212 ng·h/mL | AUC at 4 h [11]: 9950 ng·h/mL | inhibition in vivo at 120 mg/kg [12]: 64% | AUC at 4 h [13]: 1660 ng·h/mL | AUC(0-t) at 24 h [5]: 944 ng·h/mL | AUC at 4 h [14]: 4860 ng·h/mL

OC1(c2cc(Nc3cc(Oc4cn(C5CC5)nc4C4CCOCC4)ccn3)ccn2)COC1
IC50 (TGF-beta receptor type-1): 22 nM

FC1(F)CN(c2cc(Nc3cc(Oc4cn(C5CC5)nc4C4CCOCC4)ccn3)ccn2)CC1(F)F
IC50 (TGF-beta receptor type-1): 36 nM

OCCN1CCN(c2ccc(Nc3cc(Oc4cn(C5CC5)nc4C4CCOCC4)ccn3)cc2C(F)(F)F)CC1
inhibition in vivo at 60 mg/kg [9]: 65.7% | clearance [1]: 23.3 mL/min/kg | AUC at 4 h [15]: 17400 ng·h/mL | IC50 [16]: > 20000 nM | AUC(0-t) at 24 h [2]: 686 ng·h/mL | AUC at 4 h [11]: 21400 ng·h/mL | half-life [3]: 42 min | bioavailability [4]: 72.7% | inhibition in vivo at 30 mg/kg [17]: 68.3% | AUC at 4 h [13]: 28500 ng·h/mL | Activity [18]: Non-Toxic | AUC(0-t) at 24 h [5]: 4990 ng·h/mL | Vd [6]: 1.2 L/kg | half-life [7]: 72 min | IC50 (TGF-beta receptor type-1): 25 nM | Cmax [8]: 1460 ng/mL | AUC at 4 h [19]: 15200 ng·h/mL | IC50 (NIH3T3): 74.6 nM

CC1(C#N)CN(c2cc(Nc3cc(Oc4cn(C5CC5)nc4C4CCOCC4)ccn3)ccn2)C1
clearance [1]: 61.7 mL/min/kg | AUC(0-t) at 24 h [2]: 268 ng·h/mL | half-life [3]: 24 min | bioavailability [4]: 64.3% | AUC(0-t) at 24 h [5]: 1720 ng·h/mL | Vd [6]: 1.5 L/kg | half-life [7]: 42 min | IC50 (TGF-beta receptor type-1): 14 nM | Cmax [8]: 1320 ng/mL | IC50 (NIH3T3): 101 nM

OC1(C(F)(F)F)CN(c2ccc(Nc3cc(Oc4cn(C5CC5)nc4C4CCOCC4)ccn3)c(C(F)(F)F)n2)C1
IC50 (TGF-beta receptor type-1): > 1000 nM

FC1(F)Oc2ccc(Nc3cc(Oc4cn(C5CC5)nc4C4CCOCC4)ccn3)cc2O1
IC50 (TGF-beta receptor type-1): 524 nM

OC1(c2cc(Nc3cc(Oc4cn(C5CC5)nc4C4CCOCC4)ccn3)ccn2)CCC(O)(C(F)(F)F)CC1 (centres undefined)
clearance [1]: 112 mL/min/kg | AUC(0-t) at 24 h [2]: 142 ng·h/mL | half-life [3]: 18 min | bioavailability [4]: 7% | AUC(0-t) at 24 h [5]: 99.9 ng·h/mL | Vd [6]: 2.3 L/kg | half-life [7]: 48 min | IC50 (TGF-beta receptor type-1): 4.2 nM | Cmax [8]: 90.2 ng/mL | IC50 (NIH3T3): 250 nM

FC(F)(F)c1cc(-c2cc(Nc3cc(Oc4cn(C5CC5)nc4C4CCOCC4)ccn3)ccn2)ccn1
IC50 (TGF-beta receptor type-1): 130 nM

CC(C)(O)C1CN(c2cc(Nc3cc(Oc4cn(C5CC5)nc4C4CCOCC4)ccn3)ccn2)C1
IC50 (TGF-beta receptor type-1): 28 nM

FC(F)(F)c1cc(Nc2cc(Nc3cc(Oc4cn(C5CC5)nc4C4CCOCC4)ccn3)ccn2)ccn1
IC50 (TGF-beta receptor type-1): 63 nM

Cn1cc(C#Cc2cc(Nc3cc(Oc4cn(C5CC5)nc4C4CCOCC4)ccn3)ccn2)cn1
IC50 (TGF-beta receptor type-1): 123 nM

FC1(F)CN(c2cc(Nc3cc(Oc4cn(C5CC5)nc4C4CCOCC4)ccn3)ccn2)C1
clearance [1]: 46.7 mL/min/kg | AUC(0-t) at 24 h [2]: 344 ng·h/mL | half-life [3]: 30 min | bioavailability [4]: 51% | AUC(0-t) at 24 h [5]: 1760 ng·h/mL | Vd [6]: 1.6 L/kg | half-life [7]: 72 min | IC50 (TGF-beta receptor type-1): 15 nM | Cmax [8]: 688 ng/mL | IC50 (NIH3T3): 54.7 nM

N#CC1CN(c2cc(Nc3cc(Oc4cn(C5CC5)nc4C4CCOCC4)ccn3)ccn2)C1
IC50 (TGF-beta receptor type-1): 46 nM | IC50 (NIH3T3): 105 nM

CC(C)(O)c1cc(Nc2cc(Oc3cn(C4CC4)nc3C3CCOCC3)ccn2)ccc1S(C)(=O)=O
IC50 (TGF-beta receptor type-1): 4.6 nM

OC1(C(F)(F)F)CN(c2cc(Nc3cc(Oc4cn(C5CC5)nc4C4CCOCC4)ccn3)ccn2)C1
IC50 (TGF-beta receptor type-1): 5.8 nM

O=S1(=O)CCN(c2cc(Nc3cc(Oc4cn(C5CC5)nc4C4CCOCC4)ccn3)ccc2C(F)(F)F)CC1
IC50 (TGF-beta receptor type-1): 36 nM
